Reference: publication PMC12059368 (Biomolecules & Therapeutics, 2024)
Like-named read-outs stand apart in the source and are kept apart here. Blank lines part the entries; values can stand above or below the molecule they belong to.

Key:
[1] = ref Popiolek et al., 2021; cited from earlier work
APAP-induced ALI rats = assay: Biochemical profile and tissue microscopy in APAP-induced ALI rats; type: in vivo, Sprague-Dawley rats
CYP3A1/2 = assay: Immunoblot of hepatic microsomes, CYP3A1/2; type: in vivo, rat; conditions: RVT rats
[2] = Rat plasma protein binding of tofacitinib; type: in vitro ADME; conditions: for fraction unbound at 5 µg/mL: Sprague-Dawley, rat, plasma, Plasma protein binding
[3] = In vitro metabolism of tofacitinib; type: in vitro ADME, rat; conditions: hepatic microsomes
[4] = iv 10 mg/kg
[5] = intestinal microsomes, CON, RVT, ALI
[6] = ref Bannwarth et al., 2013, Dowty et al., 2014; cited from earlier work
in vivo = conditions: Sprague-Dawley, rat, plasma, iv, 10 mg/kg, CON rats (control)
[7] = RVT 50 mg/kg ip, ALI-RVT vs ALI rats, plasma
[8] = ALI-RVT rats (RVT 50 mg/kg ip 1.5 h before APAP)
[9] = oral 20 mg/kg, ALI rats (APAP 400 mg/kg ip)
[10] = oral 20 mg/kg, ALI-RVT rats (RVT 50 mg/kg ip 1.5 h before APAP)
[11] = oral 20 mg/kg, ALI-RVT vs ALI rats
[12] = oral 20 mg/kg, CON rats (control)
[13] = oral 20 mg/kg, RVT rats (RVT 50 mg/kg ip)

Structure (SMILES): CC(=O)Nc1ccc(O)cc1 [APAP, Acetaminophen]
Safe dose [1]: up to 2,000 mg per day

CYP3A expression following RVT administration (CYP3A1/2): slightly decreased
Structure (SMILES): Oc1ccc(/C=C/c2cc(O)cc(O)c2)cc1 [RVT, Resveratrol]
Liver and kidney histology (APAP-induced ALI rats; RVT 50 mg/kg ip, ALI-RVT rats): alleviated tissue damage | Decrease in GOT (APAP-induced ALI rats; [7]): 35.1% | Increase in total protein (APAP-induced ALI rats; [7]): 4.50% | Glutamate oxaloacetate transaminase levels (APAP-induced ALI rats; RVT administration in ALI rats): normalized

recovery at 30 min, 5 µg/mL ([2]; PBS in Nanosep 10 K centrifugal filter unit (no plasma), pH 7.4): 99.7 ± 2.51% | fraction unbound at 5 µg/mL ([2]; plasma of ALI rats): 0.358 | fraction unbound at 5 µg/mL ([2]; plasma of CON rats): 0.363 | fraction unbound at 5 µg/mL ([2]; plasma of RVT rats): 0.349 | CLint lower than in CON rats ([3]; ALI rats): 69.6% | CLint as % of CON values ([3]; ALI-RVT rats): 93.1% | Km values, comparison across all groups ([3]; CON, RVT, ALI, ALI-RVT): remained consistent | Ae0-24 h (drug excreted unchanged in urine for 24 h) ([4]; ALI rats (APAP 400 mg/kg ip)): 4.26 ± 2.87 % of dose | GI24 h (drug remaining in the gastrointestinal tract at 24 h) ([4]; ALI rats (APAP 400 mg/kg ip)): 0.134 ± 0.0339 % of dose | Increase in AUC ([4]; ALI vs CON rats): 207% | Increase in terminal half-life ([4]; ALI vs CON rats): 113% | Reduction in CL ([4]; ALI vs CON rats): 64.7% | Reduction in CLNR ([4]; ALI vs CON rats): 66.1% | Ae0-24 h (drug excreted unchanged in urine for 24 h) [4, 8]: 9.25 ± 3.62 % of dose | GI24 h (drug remaining in the gastrointestinal tract at 24 h) [4, 8]: 0.115 ± 0.0493 % of dose | Increase in Ae0-24 h ([4]; ALI-RVT vs ALI rats): 117% | Increase in CL ([4]; ALI-RVT vs ALI rats): 142% | Increase in CLNR ([4]; ALI-RVT vs ALI rats): 141% | Increase in CLR ([4]; ALI-RVT vs ALI rats): 398% | Reduction in AUC ([4]; ALI-RVT vs ALI rats): 62.0% | Shorter terminal half-life ([4]; ALI-RVT vs ALI rats): 38.0% | Ae0-24 h (drug excreted unchanged in urine for 24 h) ([4]; CON rats (control)): 5.30 ± 1.91 % of dose | GI24 h (drug remaining in the gastrointestinal tract at 24 h) ([4]; CON rats (control)): 0.108 ± 0.0444 % of dose | Ae0-24 h (drug excreted unchanged in urine for 24 h) ([4]; RVT rats (RVT 50 mg/kg ip)): 7.31 ± 3.12 % of dose | GI24 h (drug remaining in the gastrointestinal tract at 24 h) ([4]; RVT rats (RVT 50 mg/kg ip)): 0.147 ± 0.00805 % of dose | F values, comparison across the four groups (CON, RVT, ALI, ALI-RVT rats): similar | Ae0-24 h (drug excreted unchanged in urine for 24 h) [9]: 3.04 ± 1.74 % of dose | GI24 h (drug remaining in the gastrointestinal tract at 24 h) [9]: 0.743 ± 0.917 % of dose | Decrease in CLR (oral 20 mg/kg, ALI vs CON rats): 76.4% | Increase in AUC (oral 20 mg/kg, ALI vs CON rats, 20 mg/kg): 181% | Ae0-24 h (drug excreted unchanged in urine for 24 h) [10]: 6.41 ± 1.86 % of dose | GI24 h (drug remaining in the gastrointestinal tract at 24 h) [10]: 0.467 ± 0.243 % of dose | Decrease in AUC [11]: 41.4% | Increase in CLR [11]: 211% | Ae0-24 h (drug excreted unchanged in urine for 24 h) [12]: 4.72 ± 2.03 % of dose | GI24 h (drug remaining in the gastrointestinal tract at 24 h) [12]: 0.791 ± 1.06 % of dose | Ae0-24 h (drug excreted unchanged in urine for 24 h) [13]: 3.96 ± 2.11 % of dose | GI24 h (drug remaining in the gastrointestinal tract at 24 h) [13]: 0.295 ± 0.0618 % of dose | GI24 h values (oral, both CON and ALI rats): less than 0.791 % of the oral dose | Vmax, Km, and CLint, comparison across the four groups [5]: no significant differences | AUC (in vivo): 4070 ng·h/mL
Structure (SMILES): C[C@@H]1CCN(C(=O)CC#N)C[C@@H]1N(C)c1ncnc2[nH]ccc12 [tofacitinib, Tofacitinib]
Fraction of the oral dose metabolized by hepatic CYP3A4 and CYP2C19 [6]: Approximately 70%
